This assay deals with Histone-lysine N-methyltransferase EZH2 (Homo sapiens, UniProt Q15910). Briefly: EZH2 Enzyme Activity Assay. Here is the method:
The compounds were dissolved in DMSO, formulated into 10 mM solutions and serially diluted with DMSO to obtain 100-fold the final concentration. 200 nL of the solutions of the compounds was transferred to a 384-well plate (Perkin Elmer, Cat. No. 6007299) by using Echo550. EZH2 (BPS, Cat. No. 51004) was diluted with 1×assay buffer (50 mM Tris-HCl 9.0, 0.01% Tween-20, 1 mM DTT) to 2-fold the final concentration (EZH2: 3 nM). A mixed solution of H3K27(21-44) and [3H]-SAM (PerkinElmer, Lot. No. 2146246) (H3K27(21-44): 200 nM, [3H]-SAM: 100 nM) was formulated. The EZH2 diluted solution was taken and added to the 384-well plate at 10 μL/well (10 μL of 1×assay buffer was added in the control group). The plate was sealed and then incubated at room temperature for 15 minutes. 10 μL of the mixed solution of H3K27 (21-44) and [3H]-SAM was added to each well. The plate was sealed and then incubated at room temperature for 60 minutes. 50 μM of SAM (Sigma, Cat. No. A7007) was formulated at low temperature and added to the 384-well plate at 10 μL/well. The sample was taken at 25 μL/well, transferred to a flashplate and incubated at room temperature for at least 1 hour. The flashplate was washed 3 times with a plate washing liquid (dH2O+0.1% Tween-20) and read by using Microbeta.

Sequence of Histone-lysine N-methyltransferase EZH2 (Q15910 whole entry): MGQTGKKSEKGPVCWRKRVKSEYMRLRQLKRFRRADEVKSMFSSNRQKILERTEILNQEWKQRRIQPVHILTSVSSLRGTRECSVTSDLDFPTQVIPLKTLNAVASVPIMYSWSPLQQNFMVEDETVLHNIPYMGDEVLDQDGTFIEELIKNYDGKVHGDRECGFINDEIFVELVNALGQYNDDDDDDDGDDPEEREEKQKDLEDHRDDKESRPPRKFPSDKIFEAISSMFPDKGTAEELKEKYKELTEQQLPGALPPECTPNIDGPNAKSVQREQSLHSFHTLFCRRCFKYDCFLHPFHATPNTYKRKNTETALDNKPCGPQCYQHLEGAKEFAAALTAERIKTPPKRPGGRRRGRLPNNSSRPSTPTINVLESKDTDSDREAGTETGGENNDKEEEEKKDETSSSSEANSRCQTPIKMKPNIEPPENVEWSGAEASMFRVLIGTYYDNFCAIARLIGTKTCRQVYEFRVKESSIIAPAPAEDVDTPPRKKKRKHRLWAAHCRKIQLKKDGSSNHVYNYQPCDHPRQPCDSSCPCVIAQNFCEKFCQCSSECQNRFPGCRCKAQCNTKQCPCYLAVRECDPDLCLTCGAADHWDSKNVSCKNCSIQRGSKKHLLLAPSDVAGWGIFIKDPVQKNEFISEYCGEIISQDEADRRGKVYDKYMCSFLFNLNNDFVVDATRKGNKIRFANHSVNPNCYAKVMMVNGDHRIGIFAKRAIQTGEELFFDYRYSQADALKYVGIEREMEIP

The compound `CNC(=O)N1CCC(C2(C)Oc3c(Cl)cc(C(=O)NCc4c(SC)cc(C)[nH]c4=O)c(C)c3O2)CC1` (configuration not stated) [US20230365541, Compound 13] yielded an IC50 of 430 pM.
Compound `CSc1cc(C)[nH]c(=O)c1CNC(=O)c1cc(Cl)c2c(c1C)OC(C)(C1CCN(S(C)(=O)=O)CC1)O2` (configuration not stated) [US20230365541, Compound 14] displayed an IC50 of 480 pM.

The term IC50 denotes the concentration that gives 50% inhibition. A lower IC50 goes with inhibition by little substance.

The record behind these values is BindingDB's records for patent US20230365541 (Haisco Pharmaceuticals, 2023).
